From ChEMBL document CHEMBL1201862, “PubChem BioAssay data set” (2004)
Active and inactive are the calls of the source.

Columns and labels:
[1] = Luminescence Cell-Based Dose Response HTS to Identify Inhibitors of 5'UTR Stem-Loop Driven Prion Protein mRNA Translation in H4 Neuroglioblastoma Cells. [Related pubchem assays: 1827 (Project Summary), 1813 (Primary HTS)]; assay type: functional
[2] = target: Intestinal-type alkaline phosphatase (Homo sapiens, UniProt P09923); assay: human intestinal alkaline phosphatase activators, dose response, biochemical, luminescence, uHTS hits (AID 463120); assay type: functional
[3] = inhibitors of SNCA 5'UTR-driven reporter translation, confirmation, H4 neuroglioma cells, luminescence (AID 1988); assay type: functional, cell-based
[4] = inhibitors of firefly luciferase expression or activity, dose response, H4 neuroglioma cells, luminescence (AID 1990); assay type: functional, cell-based
[5] = target: T1, Microphthalmia-associated transcription factor (Homo sapiens, UniProt O75030); assay: TRPM1 promoter luciferase signal decrease, dose response, MITF inhibitor project, cell-based, SK-MEL-5, cherry-picked, set 3 (AID 493073); assay type: functional
T1 sequence (O75030 whole entry): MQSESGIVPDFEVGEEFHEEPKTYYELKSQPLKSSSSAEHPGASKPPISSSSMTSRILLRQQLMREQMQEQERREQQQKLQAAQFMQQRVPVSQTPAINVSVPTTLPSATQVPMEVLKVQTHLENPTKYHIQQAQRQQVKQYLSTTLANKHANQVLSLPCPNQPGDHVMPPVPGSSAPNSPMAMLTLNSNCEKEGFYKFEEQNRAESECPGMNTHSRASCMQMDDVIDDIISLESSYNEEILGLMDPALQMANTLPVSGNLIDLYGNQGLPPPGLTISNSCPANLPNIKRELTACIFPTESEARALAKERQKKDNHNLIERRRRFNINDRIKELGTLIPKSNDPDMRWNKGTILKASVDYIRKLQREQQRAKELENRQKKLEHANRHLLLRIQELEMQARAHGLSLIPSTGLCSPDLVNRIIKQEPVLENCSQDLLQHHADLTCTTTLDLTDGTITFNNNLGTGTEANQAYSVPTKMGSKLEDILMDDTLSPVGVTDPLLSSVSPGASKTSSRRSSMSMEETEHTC

A-375 [6] = assay: MITF: Counter assay: A375 proliferation Measured in Cell-Based System Using Plate Reader - 2084-03_Inhibitor_Dose_DryPowder_Activity. [Related pubchem assays (depositor defined):AID488944]; assay type: functional; details: Homo sapiens
Integrin alpha-4 = Integrin alpha-4 (Homo sapiens, UniProt P13612); assay: VLA-4 integrin allosteric ligands, SAR follow-up, cell-based, LIBS antibody binding, flow cytometry (AID 488791); assay type: functional
Vero = assay: cells; assay type: functional; details: Chlorocebus sabaeus
A-375 [7] = assay: A375 melanoma cell viability reduction, dose response, counter-screen for MITF modulator project, cherry-pick samples, set 2 (AID 540335); assay type: functional, cell-based; details: Homo sapiens
[8] = target: T2, E3 ubiquitin-protein ligase XIAP (Homo sapiens, UniProt P98170); assay: XIAP antagonists, biochemical, IAP family, fluorescence polarization (AID 1018); assay type: functional
[9] = target: T2, E3 ubiquitin-protein ligase XIAP; assay: Counter Screen using XIAP-Bir3 for Chemical Antagonists of Bir1/2 domains of IAP-family anti-apoptotic proteins. [Related pubchem assays (depositor defined):AID1018, AID1449, AID1514, AID1638, AID1749, AID1750, AID488957, AID488963]

T2 sequence (P98170 whole entry): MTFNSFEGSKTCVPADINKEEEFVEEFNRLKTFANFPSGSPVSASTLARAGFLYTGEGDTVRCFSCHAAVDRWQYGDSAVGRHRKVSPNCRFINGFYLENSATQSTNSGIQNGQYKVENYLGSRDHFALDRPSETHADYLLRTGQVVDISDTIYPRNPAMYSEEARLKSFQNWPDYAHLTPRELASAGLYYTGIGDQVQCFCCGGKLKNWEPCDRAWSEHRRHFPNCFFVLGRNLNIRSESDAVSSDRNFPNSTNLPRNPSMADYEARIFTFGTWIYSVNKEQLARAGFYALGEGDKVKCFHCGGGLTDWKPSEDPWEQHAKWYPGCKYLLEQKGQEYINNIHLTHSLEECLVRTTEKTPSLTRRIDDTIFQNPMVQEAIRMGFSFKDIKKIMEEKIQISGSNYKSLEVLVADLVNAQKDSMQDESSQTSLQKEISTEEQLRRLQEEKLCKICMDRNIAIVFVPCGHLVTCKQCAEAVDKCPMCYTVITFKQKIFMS
Sequence of Integrin alpha-4 (P13612 whole entry): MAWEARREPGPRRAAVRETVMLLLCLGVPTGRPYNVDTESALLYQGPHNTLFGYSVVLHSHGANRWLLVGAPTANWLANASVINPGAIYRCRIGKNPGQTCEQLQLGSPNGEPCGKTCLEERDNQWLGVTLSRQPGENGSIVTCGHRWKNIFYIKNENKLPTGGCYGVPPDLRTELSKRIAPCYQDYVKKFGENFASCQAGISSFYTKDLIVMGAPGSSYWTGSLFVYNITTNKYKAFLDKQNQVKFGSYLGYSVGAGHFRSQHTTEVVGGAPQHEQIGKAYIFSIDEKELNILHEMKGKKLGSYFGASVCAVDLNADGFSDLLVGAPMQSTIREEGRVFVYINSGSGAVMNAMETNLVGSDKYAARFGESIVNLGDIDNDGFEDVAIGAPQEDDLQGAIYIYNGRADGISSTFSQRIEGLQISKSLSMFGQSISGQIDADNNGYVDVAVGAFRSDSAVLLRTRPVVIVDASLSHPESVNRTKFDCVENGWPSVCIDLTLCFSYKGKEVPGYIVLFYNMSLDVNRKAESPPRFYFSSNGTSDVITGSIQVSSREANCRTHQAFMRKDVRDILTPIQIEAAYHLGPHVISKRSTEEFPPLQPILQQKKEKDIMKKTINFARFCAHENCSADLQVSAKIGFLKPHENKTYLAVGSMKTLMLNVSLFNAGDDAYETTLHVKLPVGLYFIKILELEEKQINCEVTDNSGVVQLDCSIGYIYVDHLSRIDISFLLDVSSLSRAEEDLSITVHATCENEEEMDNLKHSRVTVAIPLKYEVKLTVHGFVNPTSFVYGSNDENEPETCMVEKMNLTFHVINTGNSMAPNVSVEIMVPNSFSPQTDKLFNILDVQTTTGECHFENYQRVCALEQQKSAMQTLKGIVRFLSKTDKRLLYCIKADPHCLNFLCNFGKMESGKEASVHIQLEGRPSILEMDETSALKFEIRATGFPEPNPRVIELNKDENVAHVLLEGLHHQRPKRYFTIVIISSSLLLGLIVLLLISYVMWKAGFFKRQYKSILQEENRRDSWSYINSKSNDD
Sequence of Intestinal-type alkaline phosphatase (P09923 whole entry): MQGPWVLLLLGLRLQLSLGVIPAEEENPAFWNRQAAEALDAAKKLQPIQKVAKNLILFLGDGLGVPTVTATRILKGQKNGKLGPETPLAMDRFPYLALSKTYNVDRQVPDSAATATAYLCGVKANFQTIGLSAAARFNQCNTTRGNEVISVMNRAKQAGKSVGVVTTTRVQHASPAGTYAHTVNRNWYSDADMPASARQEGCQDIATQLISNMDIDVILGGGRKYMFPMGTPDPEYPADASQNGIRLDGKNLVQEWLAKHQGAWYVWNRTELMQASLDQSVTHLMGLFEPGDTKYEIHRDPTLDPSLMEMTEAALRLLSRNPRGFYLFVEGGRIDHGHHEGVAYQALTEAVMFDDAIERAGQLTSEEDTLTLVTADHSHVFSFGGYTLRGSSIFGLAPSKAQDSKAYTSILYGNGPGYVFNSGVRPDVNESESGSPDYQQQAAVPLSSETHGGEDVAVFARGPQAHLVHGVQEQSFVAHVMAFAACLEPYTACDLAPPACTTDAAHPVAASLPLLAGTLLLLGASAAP

N#CCN1C(=S)N=C(Nc2cccc(Cl)c2)C12CCCCC2
EC50 [1]: > 120 µM (not active)
EC50 [2]: > 100 µM (inactive)
EC50 [3]: > 120 µM (not active)
EC50 [4]: > 120 µM (not active)

CCOCCCNC(=O)/C(C#N)=C/c1ccc(Cl)c([N+](=O)[O-])c1
AC50 [5]: 7.38 µM (active)
AC50 (A-375 [6]): > 35 µM (active)
EC50 (Integrin alpha-4): > 90.8 µM (inactive)
CC50 (Vero): > 25 µM (active)
AC50 (A-375 [7]): > 35 µM (active)

CCOC(=O)C1(CCCc2ccccc2)CCN(C(=O)C2=C(C)OCCO2)CC1
IC50 [8]: > 100 µM (not active)
IC50 [9]: > 100 µM (inactive)
